From patent US20250073186A1, “COMBINATION TREATMENT METHODS” (Rose Research Center, LLC, priority 2021, published 2025)

How the values were obtained:
smokers [1] = details: bupropion alone; cited from earlier work
cigarette smoking adults = experiment: Open-label switching study: side effects (AE/SAE reporting) and adherence; type: in vivo, human; details: zonisamide added to bupropion
Method: There was a data collection period of at least five days to obtain baseline data on use of combustible cigarettes. Participants enrolled in the study received a G6 e-cigarette at V2 for ad libitum use.
At each session, expired air CO was measured along with blood pressure, heart rate, respiratory rate and body weight. Participants also completed questionnaires rating subjective effects of smoking and e-cigarette use. Participants were given enough cartomizers and study drugs to last until their next scheduled session, along with an extra 4 days' worth to allow for flexibility in case sessions need to be rescheduled. E-cigarette usage and study drug compliance were tracked not only by self-reported number of occasions used, but also by cartomizer counts (used or unused) and returned study drugs.
AE/SAE Reporting AEs/SAEs were assessed using questionnaires and interviews at the indicated time points and spontaneous reporting from the time of ICF signature until the EOS for the participant.

smokers [2] = details: cited from earlier work

SMILES | typical abstinence rate (smokers [1]) [%] | effect on adverse events associated with bupropion, such as insomnia (cigarette smoking adults) | effect on anger, restlessness and impatience (smokers [2]; during smoking abstinence) | effect on ad libitum smoking (smokers [2]; in vivo) | effect on craving for cigarettes (smokers [2]; in vivo)
CC(NC(C)(C)C)C(=O)c1cccc(Cl)c1 (centres unmarked) [bupropion] | ~25 | – | – | – | –
NS(=O)(=O)Cc1noc2ccccc12 [zonisamide] | – | appeared to reduce incidences of adverse events associated with bupropion | decrease anger, restlessness and impatience | reduce ad libitum smoking | relieve craving for cigarettes
